According to US6861390B2, “Derivatives of UK-2A” (priority 2001, dated 2005):
Where two headings read alike, the source gives them in different places.

Assays:
[1] = system: Phytophthora infestans (PHYTIN); assay: microbe, parasite or virus in culture; assay type: cell-based; conditions: in Secale cereale, read-out: T8 PHYTIN in vitro Growth Inhibition
[2] = system: Mycosphaerella graminicola (Septoria tritici, SEPTTR); assay: microbe, parasite or virus in culture; assay type: cell-based; conditions: Zymoseptoria tritici, read-out: T11 SEPTTR in vitro Growth Inhibition
[3] = system: Erysiphe graminis (ERYSGT); assay: Powdery Mildew of Wheat, whole plant 24 Hour Protectant (T1); conditions: Blumeria graminis, in Triticum aestivum, read-out: T1 ERYSGT in vivo 1 Day Protectant, control of fungal infection
Procedure: Compound formulation was accomplished by dissolving technical materials in acetone, with serial dilutions then made in acetone to obtain desired concentrations. Final treatment volumes were obtained by adding 9 volumes 0.01% Triton X-100.
Powdery Mildew of Wheat (Erysiphe graminis—ERYSGT) (24 Hour Protectant): Wheat (cultivar Monon) was grown in a soilless peat-based potting mixture (“Metromix”) and mineral soil (50/50 mix) until the seedlings were 10-20 cm tall. These plants were then sprayed to run-off with the test compound at a rate of 100 ppm. After 24 hours the test plants were inoculated by dusting with conidia from powdery mildew infected wheat plants. The plants were then transferred to the greenhouse until disease developed on the untreated control plants.

[4] = system: Rhizoctonia solani (RHIZSO); assay: microbe, parasite or virus in culture; assay type: cell-based; conditions: read-out: T10 RHIZSO in vitro Growth Inhibition
[5] = system: Phytophthora infestans (PHYTIN); assay: whole plant or invertebrate; conditions: in Solanum lycopersicum, 24 h, read-out: T3 PHYTIN in vivo 1 Day Protectant, control of fungal infection
Ustilago maydis (USTIMA) = assay: microbe, parasite or virus in culture; assay type: cell-based; conditions: Mycosarcoma maydis, read-out: T12 USTIMA in vitro Growth Inhibition
[6] = system: Puccinia recondita (PUCCRT); assay: Brown Rust of Wheat, whole plant 24 Hour Protectant (T5); conditions: read-out: T5 PUCCRT in vivo 1 Day Protectant, control of fungal infection
[7] = system: Stagonospora nodorum (Leptosphaeria nodorum, LEPTNO); assay: microbe, parasite or virus in culture; assay type: cell-based; conditions: Parastagonospora nodorum, read-out: T7 LEPTNO in vitro Growth Inhibition
[8] = system: Leptosphaeria nodorum (LEPTNO); assay: Glume Blotch of Wheat, whole plant 24 Hour Protectant (T2); conditions: Parastagonospora nodorum, read-out: T2 LEPTNO in vivo 1 Day Protectant, control of fungal infection
[9] = system: Magnaporthe grisea (Pyricularia oryzae, PYRIOR); assay: microbe, parasite or virus in culture; assay type: cell-based; conditions: read-out: T9 PYRIOR in vitro Growth Inhibition
[10] = system: Septoria tritici (SEPTTR); assay: Leaf Blotch of Wheat, whole plant 24 Hour Protectant (T6); conditions: Zymoseptoria tritici; wheat (cultivar Monon), sprayed at 100 ppm, inoculated after 24 hours; read-out: T6 SEPTTR in vivo 1 Day Protectant, control of fungal infection
[11] = wheat (cultivar Yuma), sprayed at 100 ppm, inoculated after 24 hours

SMILES	inhibition at 25 ppm [1] [%]	inhibition at 25 ppm [2] [%]	pest or weed control at 100 ppm [3] [%]	inhibition at 25 ppm [4] [%]	pest or weed control at 100 ppm [5] [%]	inhibition at 25 ppm (Ustilago maydis (USTIMA)) [%]	pest or weed control at 100 ppm [6, 11] [%]	inhibition at 25 ppm [7] [%]	pest or weed control at 100 ppm [8, 11] [%]	inhibition at 25 ppm [9] [%]	pest or weed control at 100 ppm [10] [%]	pest or weed control at 100 ppm ([6]; 24 h) [%]	pest or weed control at 100 ppm ([8]; 24 h) [%]
CCCOCOc1c(OC)ccnc1C(=O)N[C@H]1COC(=O)[C@H](Cc2ccccc2)[C@@H](OC(=O)C(C)C)[C@H](C)OC1=O [Compound 6]	< 80	< 80	25 to 74	< 80	< 25	< 80	75 to 100	> 80	75 to 100	< 80	–	–	–
COc1ccnc(C(=O)N[C@H]2COC(=O)[C@H](Cc3ccccc3)[C@@H](OC(=O)C(C)C)[C@H](C)OC2=O)c1OCOC(C)(C)C [Compound 8]	< 80	< 80	< 25	< 80	< 25	> 80	75 to 100	> 80	75 to 100	< 80	75 to 100	–	–
COCC(C)OCOc1c(OC)ccnc1C(=O)N[C@H]1COC(=O)[C@H](Cc2ccccc2)[C@@H](OC(=O)C(C)C)[C@H](C)OC1=O (stereo partly shown) [Compound 12]	< 80	> 80	25 to 74	> 80	< 25	> 80	75 to 100	> 80	75 to 100	> 80	75 to 100	–	–
COc1ccnc(C(=O)N[C@H]2COC(=O)[C@H](Cc3ccccc3)[C@@H](OC(=O)C(C)C)[C@H](C)OC2=O)c1OCOCCOC(C)=O [Compound 17]	< 80	> 80	< 25	> 80	< 25	< 80	75 to 100	> 80	75 to 100	< 80	75 to 100	–	–
CCC(=O)OCOc1c(OC)ccnc1C(=O)N[C@H]1COC(=O)[C@H](Cc2ccccc2)[C@@H](OC(=O)C(C)C)[C@H](C)OC1=O [Compound 21]	< 80	> 80	25 to 74	< 80	< 25	< 80	75 to 100	> 80	75 to 100	> 80	75 to 100	–	–
COc1ccnc(C(=O)N[C@H]2COC(=O)[C@H](Cc3ccccc3)[C@@H](OC(=O)C(C)C)[C@H](C)OC2=O)c1OCOC(=O)C(C)C [Compound 23]	< 80	< 80	25 to 74	< 80	< 25	> 80	–	> 80	–	< 80	–	75 to 100	75 to 100
COCC(=O)OCOc1c(OC)ccnc1C(=O)N[C@H]1COC(=O)[C@H](Cc2ccccc2)[C@@H](OC(=O)C(C)C)[C@H](C)OC1=O [Compound 30]	< 80	< 80	75 to 100	> 80	< 25	> 80	75 to 100	> 80	75 to 100	> 80	75 to 100	–	–
COC(=O)CCC(=O)OCOc1c(OC)ccnc1C(=O)N[C@H]1COC(=O)[C@H](Cc2ccccc2)[C@@H](OC(=O)C(C)C)[C@H](C)OC1=O [Compound 32]	< 80	< 80	25 to 74	< 80	< 25	< 80	75 to 100	> 80	75 to 100	> 80	75 to 100	–	–
COc1ccnc(C(=O)N[C@H]2COC(=O)[C@H](Cc3ccccc3)[C@@H](OC(=O)C(C)C)[C@H](C)OC2=O)c1OCOC(=O)C1CCCO1 (stereo partly shown) [Compound 34]	< 80	< 80	25 to 74	< 80	< 25	< 80	75 to 100	> 80	75 to 100	< 80	75 to 100	–	–
CCCOCC(=O)OCOc1c(OC)ccnc1C(=O)N[C@H]1COC(=O)[C@H](Cc2ccccc2)[C@@H](OC(=O)C(C)C)[C@H](C)OC1=O [Compound 35]	< 80	> 80	25 to 74	> 80	< 25	< 80	75 to 100	> 80	75 to 100	> 80	75 to 100	–	–
COc1ccnc(C(=O)N[C@H]2COC(=O)[C@H](Cc3ccccc3)[C@@H](OC(=O)C(C)C)[C@H](C)OC2=O)c1OCOC(=O)COC(C)C [Compound 36]	< 80	> 80	< 25	< 80	< 25	< 80	75 to 100	> 80	75 to 100	> 80	75 to 100	–	–
CCCCOCC(=O)OCOc1c(OC)ccnc1C(=O)N[C@H]1COC(=O)[C@H](Cc2ccccc2)[C@@H](OC(=O)C(C)C)[C@H](C)OC1=O [Compound 37]	< 80	> 80	25 to 74	< 80	< 25	> 80	75 to 100	> 80	75 to 100	> 80	75 to 100	–	–
C=CCO[C@H]1[C@H](C)OC(=O)[C@@H](NC(=O)c2nccc(OC)c2OCOC(C)=O)COC(=O)[C@@H]1Cc1ccccc1 [Compound 52]	< 80	> 80	< 25	> 80	< 25	< 80	75 to 100	> 80	75 to 100	> 80	–	–	–
COc1ccnc(C(=O)N[C@H]2COC(=O)[C@H](Cc3ccccc3)[C@@H](OCC(C)C)[C@H](C)OC2=O)c1OCOCC(C)C [Compound 65]	–	–	< 25	–	< 25	–	75 to 100	–	75 to 100	–	75 to 100	–	–
